Experimental data: a melting point compilation (Tetko et al.; mined from patent text by program, amines drawn as free bases though some values may be those of a salt)

First: Cc1cnnc2c1C(=O)CC(c1ccccc1Cl)C2 (centres undefined)
Second: COC(=O)C1=C(C)NC(C)=C(C(C)=O)C1c1ccccc1Cl (centres undefined)
The melting point of the first is lower: 108 to 109 °C for the first, 183 to 184 °C for the second.

First: COC(=O)c1ccc(-c2cccc([N+](=O)[O-])c2)cc1
Second: COC(=O)c1cc(-c2ccc(Cl)cc2)[nH]c1Cl
The melting point of the first is lower: 136 to 141 °C for the first, 228 to 232 °C for the second.

First: Cc1cc(C)c(C(=O)c2ccccc2C)c(O)c1
Second: COC(=O)/C(=C\O)c1ccccc1C
The melting point of the first is higher: 65 to 67 °C for the first, 48 to 49 °C for the second.

First: CC(c1ccc(Oc2ccc(N)cc2)cc1)(c1ccc(Oc2ccc(N)cc2)cc1)c1ccc(Oc2ccc(N)cc2)cc1
Second: C=C(C)c1ccc(C(C)(c2ccc(C(=C)C)cc2)c2ccc(C(=C)C)cc2)cc1
The melting point of the first is higher: 220 to 221 °C for the first, 28 °C for the second.

Compared with `O=C(NCCCCCCCCc1ccccc1)c1cc(-c2cccc(C(F)(F)F)c2)c(OCCO)c(-c2cccc(C(F)(F)F)c2)c1`, `CN(Cc1cccc(-c2ccc(CC3SC(=O)NC3=O)cc2)c1)C(=O)CCCCC(=O)c1ccccc1` (centres undefined) is lower in melting point: 143 to 145 °C for the first, 48 °C for the second.

First: O=C(Nc1ccc(C(=O)N2CCc3cn[nH]c3-c3ncccc32)c(Cl)c1)c1ccccc1-c1ccccc1
Second: O=C(O)c1ccccc1-c1cc(-c2ccccc2)[nH]n1
The melting point of the first is lower: 181 to 192 °C for the first, 204 to 206 °C for the second.

First: O=[N+]([O-])OCCNC(=S)Cc1ccccc1
Second: O=C(O)c1ccc(NC(=O)C(CS)Cc2ccccc2)cc1 (centres undefined)
The melting point of the first is lower: 63 to 65 °C for the first, 166 to 168 °C for the second.

First: BrC1Cn2cccc2Sc2ccccc21 (centres undefined)
Second: CC1c2ccccc2C=Cn2c1n[nH]c2=O (centres undefined)
The melting point of the first is lower: 115 to 116 °C for the first, 119 to 120 °C for the second.

First: CCOC(=O)c1sc(=O)[nH]c1C(Cl)(Cl)Cl
Second: CCOC(=O)C(OS(N)(=O)=O)c1ccccc1 (centres undefined)
The melting point of the first is higher: 109 to 110 °C for the first, 91 to 93 °C for the second.

First: CCCCCCCCCCCCCCCCCCOC(=O)C(N)Cc1ccc(O)cc1 (centres undefined)
Second: CCCCCCC(O)CCCCCCCCCCC(N)=O (centres undefined)
The melting point of the first is lower: 80 to 83 °C for the first, 98 to 99 °C for the second.

Compared with `Cc1ccc(-c2cc(NCCNc3cc(-c4ccc(C)cc4)[nH]n3)n[nH]2)cc1`, `CC(C)COc1ccc(-c2ccc3nnn(Cc4ccc5ncccc5c4)c3n2)cc1F` is lower in melting point: 179 °C for the first, 115 to 157 °C for the second.

Compared with `CC(C)=CCOc1ccc(C(=O)C=Cc2ccc(C(C)(C)C)cc2)c(OCC(=O)O)c1`, `COc1ccc(C(C)(C)C)cc1C=Cc1ccc(C=O)cc1` is lower in melting point: 136 to 139 °C for the first, 82 to 83 °C for the second.

First: Cc1nc2n(C)nc(C)n2c(=O)c1CCO
Second: CC(C)(C)c1ccc(-c2[nH]c3nccnc3c2CCCO)cc1
The melting point of the first is lower: 170 °C for the first, 187 to 189 °C for the second.

`Oc1ccc(-n2ccc(Nc3ccccc3)n2)cc1` and `CCOC(=O)NC(C)Cn1cc(-c2ccccc2)c2ccccc2c1=O` (centres undefined) cannot be ordered by melting point: 182 to 185 °C for the first, 182 °C for the second.

First: COC(=O)C[C@@H]1Nc2ccc(NC(=O)OC(C)(C)C)cc2CNC1=O
Second: CC(C(=O)O)c1ccc2c(c1)C(=O)CC(C(C)(C)C)O2 (centres undefined)
The melting point of the first is higher: 167 to 169 °C for the first, 117 to 118 °C for the second.

Compared with `CCOC(=O)c1ncc2[nH]c3cccc(OCc4cccc(F)c4)c3c2c1COC`, `CCOC(=O)c1cccc2c(=O)cc(-c3cccc(OCc4ccc5ccccc5n4)c3)oc12` is higher in melting point: 188 °C for the first, greater than 300 °C for the second.

Compared with `COc1ccccc1N1CCN(CCNc2ccccc2[N+](=O)[O-])CC1`, `COc1ccc(S(=O)(=O)c2ccccc2)cc1S(=O)(=O)NC1CCOCC1` is higher in melting point: 117 to 118 °C for the first, 176 to 178 °C for the second.

Compared with `O=C(O)CCC(O)c1ccc(-c2ccc(Cl)cc2)o1` (centres undefined), `O=C(O)CCCCCCc1ccc(Cl)cc1` is lower in melting point: 100 to 101 °C for the first, 75 to 78 °C for the second.

Compared with `CC(=O)Nc1c(C)cc(O)c(C)c1C`, `CNC(=O)c1cccc(NC(=O)CCc2ccccc2C)c1` is lower in melting point: 189 to 190 °C for the first, 131 °C for the second.

First: CCCn1c(=O)c2c(Cl)cc(Cl)cc2n(Cc2ccccc2)c1=O
Second: CCN1COc2cc3c(=O)n(CCc4cccc(F)c4)nnc3cc2C1=O
The melting point of the first is lower: 111 to 115 °C for the first, 161 to 163 °C for the second.

First: O=C(NC(=O)c1cccs1)NC1CN2CCC1CC2 (centres undefined)
Second: N#Cc1c(N2CCN(C(=O)c3cccs3)CC2)c2cc(Cl)cnc2[nH]c1=O
The melting point of the first is higher: 232 to 233 °C for the first, 158 °C for the second.

Compared with `C[Si](C)(O)O[Si](C)(C)c1ccc(OC(=O)Oc2ccc([Si](C)(C)O[Si](C)(C)O)cc2)cc1`, `COc1ccc(-c2cc(=O)n(Cc3c(Cl)cc(Cl)cc3Cl)nc2-c2ccc(OC)cc2)cc1` is higher in melting point: 62 to 63 °C for the first, 142 to 143 °C for the second.

First: C=CCOc1ccc(NC(=O)CC(C#N)=C(C)O)cc1
Second: C=CCCC(C#N)(C#N)Cc1ccc(OC(F)(F)Br)cc1
The melting point of the first is higher: 162 to 164 °C for the first, 50.2 °C for the second.

First: COC(=O)c1cc(-n2cnnc2)c(C(F)(F)F)cc1NC(C)=O
Second: CCOC(=O)N(CC(=O)O)C(=O)c1c(Br)ccc2c(C(F)(F)F)c(OC)ccc12
The melting point of the first is higher: 180 to 184 °C for the first, 167 to 168 °C for the second.

Compared with `Cn1c(C(F)(F)F)cc(=O)n(-c2c(F)cc(Cl)c3c2OC(C)(C)C3=O)c1=O`, `Cc1cc(-c2c(-c3ccc(S(C)(=O)=O)cc3)cnn(CC(F)(F)F)c2=O)ccc1F` is lower in melting point: 160 to 162 °C for the first, 88 to 91 °C for the second.

First: CCc1nc2cccc(C)c2c(=O)n1-c1ccc(F)cc1
Second: Nc1c(-c2nc(-c3ccco3)n[nH]2)nnn1Cc1ccc(F)cc1
The melting point of the first is lower: 170 °C for the first, 200 to 202 °C for the second.

First: Cc1nc(C)n(CCOCC2=C(C(=O)OC(C)C)C(c3ccccc3Cl)C(C(=O)Nc3ccccn3)=CN2)c1C (centres undefined)
Second: COC(=O)C1=C(C)NC(C)=C(C(=O)OCCN2CC=C(c3ccccc3)CC2)C1c1cccc([N+](=O)[O-])c1 (centres undefined)
The melting point of the first is higher: 180 to 182 °C for the first, 115 to 116 °C for the second.

Compared with `O=S(=O)(c1ccccc1)C(CCCCl)c1ccccc1` (centres undefined), `C=COC(=O)N1CC2C(=O)C=CC(c3ccccc3)(c3ccccc3)C2C1` (centres undefined) is higher in melting point: 110 to 112 °C for the first, 162 °C for the second.

First: CCN(CC)C1=NC(NC(=O)CCCCc2ccccc2)C(=O)N(C)c2ccccc21 (centres undefined)
Second: CC(C)c1cccc(C(C)C)c1NC(=O)NCC1c2ccccc2-c2ccccc21
The melting point of the first is lower: 134 to 135 °C for the first, 217 to 218 °C for the second.

First: COCc1ncccc1CN(CCn1cc(C)c2occc2c1=O)Cc1ccc2c(c1)NC(=O)C(C)(C)C(=O)N2CC(C)C
Second: C[C@@H](O)c1cc2cc(CN3CCOCC3)cc3c(=O)c(C(=O)NCc4ccc(Cl)cc4)cn1c23
The melting point of the first is higher: 207 to 210 °C for the first, 75 to 79 °C for the second.

First: Cc1cc(-c2nnn(C)n2)cc(C)c1OCCCC(O)c1cc2cccnc2[nH]1 (centres undefined)
Second: CC(C)c1cccc(C(C)C)c1NC(=O)CN1CCN(CCOc2nc3ccccc3[nH]2)CC1
The melting point of the first is lower: 166 to 169 °C for the first, 205 to 206 °C for the second.

First: CCSc1cc(=O)c2c(O)cc(OC)c(C3CCN(C)CC3O)c2o1 (centres undefined)
Second: COc1cccc2cc(C(=O)c3ccc(Cl)c(S(=O)(=O)Cl)c3)oc12
The melting point of the first is lower: 60 °C for the first, 143 to 145 °C for the second.

Compared with `COc1ccc(Br)c2c1-c1ccc(NS(C)(=O)=O)cc1C(c1ccccc1)O2` (centres undefined), `CC(=O)c1ccc(NS(C)(=O)=O)c(Oc2ccccc2)c1` is lower in melting point: 122 to 123 °C for the first, 113 to 114 °C for the second.

First: O=c1[nH]cc(-c2cccc(Cl)c2)c2ncccc12
Second: CCOc1c(C=O)cc2c3c(cccc13)-c1ccccc1-2
The melting point of the first is higher: 252 °C for the first, 118 to 119 °C for the second.

Compared with `Cc1oc(-c2ccccc2)nc1COc1ccc(N)cn1`, `Cc1oc(-c2ccccc2)nc1COc1ccc(CON=C(CCCC(C)(C)C(=O)O)c2ccccc2)cc1` is higher in melting point: 106 to 107 °C for the first, 111 to 112 °C for the second.

First: CN=C1CSc2ccccc2CN1
Second: CC1CCc2ncc(-c3ccccc3)c(=O)n21 (centres undefined)
The melting point of the first is higher: 278 to 280 °C for the first, 118 to 122 °C for the second.

First: OCCNc1cc(Nc2ccc(Cl)cc2)ncn1
Second: CC(=Cc1ccc(Cl)cc1Cl)c1ccc(Cl)cc1
The melting point of the first is higher: 183 °C for the first, 84 to 85 °C for the second.

Compared with `Cc1c(-c2ccccc2)oc2c(C(=O)O)cc(Br)cc2c1=O`, `CC(=O)Nc1cccc(-c2ccnc3c(C(=O)c4cccs4)cnn23)c1` is lower in melting point: 287 to 289 °C for the first, 245 to 247 °C for the second.

Compared with `Cc1nc(N2CCN(Cc3ccc(F)cc3)C2=O)sc1-c1nn[nH]n1`, `CC(=NOCCOc1ccc(CC2SC(=O)NC2=O)cc1)c1ccc(Cl)cc1` (centres undefined) is lower in melting point: 145 to 149 °C for the first, 118 to 119 °C for the second.

First: CNC(=NC#N)NCCSCc1ccc(CN(C)C)o1
Second: CCN(CC)CCNC(=O)c1cccc2cc3cccc(I)c3nc12
The melting point of the first is higher: 79 to 81.5 °C for the first, 64 to 66 °C for the second.

Compared with `CC(C)Oc1cccc(CSc2nc(N)cc(Cl)n2)c1`, `COCC(=O)N(c1c(C)ccc(CC(=O)Nc2cc(Cl)cc(Cl)c2)c1C)C(C)C(=O)OC` (centres undefined) is higher in melting point: 71 °C for the first, 126 to 128 °C for the second.

Compared with `Cc1cnc(NCCc2ccccn2)c(=O)n1NC(=O)CCc1cc(C(F)(F)F)ccc1F`, `NS(=O)(=O)c1ccc(-n2cnc3c(-c4ccc(C(F)(F)F)cc4F)ncnc32)cc1` is higher in melting point: 181 to 184 °C for the first, 244 to 245 °C for the second.

First: CC(=NNC(=N)N)c1sc(-c2ccc(C3CCCCC3)cc2)nc1C
Second: O=C1C2CCCCC2(Cl)C(=O)N1c1ccc(Cl)cc1 (centres undefined)
The melting point of the first is higher: 273 to 276 °C for the first, 116 to 118 °C for the second.

`CC(C)NCC(O)COc1ncc(Br)nc1N(C)C` (centres undefined) and `CCCC(CCC)n1nnc2c(Oc3c(Br)cc(C(C)C)cc3OC)nc(C)nc21` cannot be ordered by melting point: 130 to 131 °C for the first, 129 to 131 °C for the second.

First: CC12CC3C(=O)OC(C1O)C3(C)O2 (centres undefined)
Second: CNC1COc2ccc3[nH]c(C(F)(F)F)nc3c2O1 (centres undefined)
The melting point of the first is lower: 95 to 96.5 °C for the first, 199 to 201 °C for the second.

Compared with `COc1ccc(NC(=O)N2CCc3cc(S(=O)(=O)N4CC(c5ccccc5)NC4=O)ccc32)cc1` (centres undefined), `COc1ccc(S(=O)(=O)Nc2ccccc2C=Cc2cccnc2)cc1` is lower in melting point: 268 to 270 °C for the first, 131 to 132 °C for the second.

First: COc1cc(OCc2ccccn2)ccc1/C=C/c1cc(/C=C/c2cc3ccccc3s2)n[nH]1
Second: O=C(NC(Cc1ccc(OCc2ccccc2)cc1)C(=O)O)c1cn2cc(-c3ccncc3)ccc2n1 (centres undefined)
The melting point of the first is lower: 231 to 232 °C for the first, 268 °C for the second.

First: CN(C)C(c1ccccc1)c1cc(C(C)(C)C)cc(C(C)(C)C)c1O (centres undefined)
Second: CC(C)c1cc(C(C)C)c(-c2csc(Br)n2)c(C(C)C)c1
The melting point of the first is lower: 120 to 123 °C for the first, 236 °C for the second.

First: CCNC(=S)NCc1ccc(/C=C/C(c2cc(Cl)c(Cl)c(Cl)c2)C(F)(F)F)cc1Cl (centres undefined)
Second: CCOC(=O)c1ccc(NC(=O)C=C(c2ccccc2)c2ccc(Cl)cc2)cc1
The melting point of the first is lower: 88 to 91 °C for the first, 173 to 175 °C for the second.

In the case of `O=C(Cl)c1ccc(Cl)cc1[N+](=O)[O-]`, the melting point was 95 to 96 °C.
